Assay results as given in ChEMBL document CHEMBL4190285, “Borapetoside E, a Clerodane Diterpenoid Extracted from Tinospora crispa, Improves Hyperglycemia and Hyperlipidemia in High-Fat-Diet-Induced Type 2 Diabetes Mice” (J Nat Prod, 2017).
The source made the active and inactive calls. The calls are words filed in the database; no cut-off is given here.

Tests used:
Mus musculus [1] = test: Antihyperlipidemic activity in high fat diet-induced obese C57BL/6J mouse assessed as serum HDL-C levels at 200 mg/kg, ip administered twice daily for 2.5 days measured at 2 hrs post last dose (reference value: 1.82 +/- 0.58 mmol/L); assay type: functional
Mus musculus [2] = test: Antihyperlipidemic activity in high fat diet-induced obese C57BL/6J mouse assessed as serum total cholesterol levels at 200 mg/kg, ip administered twice daily for 2.5 days measured at 2 hrs post last dose (reference value: 4.56 +/- 1.01 mmol/L); assay type: functional
Mus musculus [3] = test: Antihyperglycemic activity in high fat diet-induced obese C57BL/6J mouse assessed as reduction in blood glucose level at 200 mg/kg, ig administered twice daily for 2.5 days measured up to 5 days post last dose; assay type: functional, organism-based
Mus musculus [4] = test: Antihyperglycemic activity in high fat diet-induced obese C57BL/6J mouse assessed as reduction in blood glucose level at 200 mg/kg, ig administered as single dose; assay type: functional, organism-based
Mus musculus [5] = test: Antihyperlipidemic activity in high fat diet-induced obese C57BL/6J mouse assessed as serum triglyceride levels at 200 mg/kg, ip administered twice daily for 2.5 days measured at 2 hrs post last dose (reference value: 1.31 +/- 0.48 mmol/L); assay type: functional
Mus musculus [6] = test: Antihyperlipidemic activity in high fat diet-induced obese C57BL/6J mouse assessed as serum LDL-C levels at 200 mg/kg, ip administered twice daily for 2.5 days measured at 2 hrs post last dose (reference value: 2.54 +/- 0.87 mmol/L); assay type: functional
Mus musculus [7] = test: Antihyperlipidemic activity in high fat diet-induced obese C57BL/6J mouse assessed as serum free fatty acid levels at 200 mg/kg, ip administered twice daily for 2.5 days measured at 2 hrs post last dose (reference value: 1.41 +/- 0.3 mmol/L); assay type: functional

With CN(C)C(=N)NC(=N)N [METFORMIN] the Activity (Mus musculus [1]) was 2.14 mmol/L, the Activity (Mus musculus [2]) was 4.47 mmol/L and the Activity (Mus musculus [3]) was “Active”. For the same compound, the Activity (Mus musculus [4]) was “Active”, the Activity (Mus musculus [5]) was 0.97 mmol/L and the Activity (Mus musculus [6]) was 2.93 mmol/L. The Activity (Mus musculus [7]) was 1.18 mmol/L.
